{"source": "ChEMBL document CHEMBL3217554", "about": "“Fast and effective identification of the bioactive compounds and their targets from medicinal plants via computational chemical biology approach” (Medchemcomm, 2011)", "data": [{"target": "Dipeptidyl peptidase 4 (Homo sapiens, UniProt P27487)", "sequence (P27487 whole entry)": "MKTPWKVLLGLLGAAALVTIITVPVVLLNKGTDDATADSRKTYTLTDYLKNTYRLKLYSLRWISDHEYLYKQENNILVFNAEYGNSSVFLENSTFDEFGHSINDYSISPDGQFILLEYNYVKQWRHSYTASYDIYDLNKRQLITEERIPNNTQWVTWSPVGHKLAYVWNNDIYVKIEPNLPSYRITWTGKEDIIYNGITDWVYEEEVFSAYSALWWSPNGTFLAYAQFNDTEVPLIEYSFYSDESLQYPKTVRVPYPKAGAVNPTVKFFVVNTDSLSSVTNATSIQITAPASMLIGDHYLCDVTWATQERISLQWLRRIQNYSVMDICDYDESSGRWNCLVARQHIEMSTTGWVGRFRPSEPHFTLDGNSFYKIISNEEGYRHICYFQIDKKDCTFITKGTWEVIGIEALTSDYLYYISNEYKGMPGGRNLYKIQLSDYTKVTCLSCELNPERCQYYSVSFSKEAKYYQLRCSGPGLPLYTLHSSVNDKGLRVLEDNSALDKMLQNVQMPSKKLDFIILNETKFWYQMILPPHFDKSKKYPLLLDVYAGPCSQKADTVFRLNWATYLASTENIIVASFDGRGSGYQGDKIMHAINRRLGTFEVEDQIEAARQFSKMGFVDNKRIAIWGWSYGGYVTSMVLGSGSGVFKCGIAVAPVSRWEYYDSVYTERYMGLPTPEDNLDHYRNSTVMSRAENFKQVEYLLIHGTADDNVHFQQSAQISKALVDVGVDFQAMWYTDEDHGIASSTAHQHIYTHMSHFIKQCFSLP", "assay": "Inhibition of human DPP4 using H-Gly-Pro-AMC peptide substrate assessed as increase in fluorescence for 20 mins by fluorimetric assay", "units": {"IC50": "µM"}, "values": [{"compound": "O=C(/C=C/c1ccc(O[C@@H]2O[C@H](CO)[C@@H](O)[C@H](O)[C@H]2O)cc1)c1ccc(O)cc1O", "note": "[ISOLIQUIRITIN]", "IC50": 26.9}, {"compound": "CCOC(=O)c1c(O)cc(O)c2c1OC(c1ccc(O)cc1)CC2", "note": "(stereo not drawn)", "IC50": 114}, {"compound": "CCOC(=O)/C=C/c1ccc(O)c(O)c1", "note": "[ETHYL CAFFEATE]", "IC50": 87.7}, {"compound": "COC(=O)C1(O)CC(O)C(O)C(OC(=O)/C=C/c2ccc(O)c(O)c2)C1", "note": "(stereo not drawn)", "IC50": 41.4}, {"compound": "C=C(C)[C@@H]1CC[C@]2(C(=O)O)CC[C@]3(C)[C@H](CC[C@@H]4[C@@]5(C)CC[C@H](O)C(C)(C)[C@@H]5CC[C@]43C)[C@@H]12", "note": "[BETULINIC ACID]", "IC50": 55.8}, {"compound": "COc1ccc2c(c1OC)CN(C)c1c-2ccc2cc3c(cc12)OCO3", "note": "[DIHYDROCHELERYTHRINE]", "IC50": 56.2}, {"compound": "O=c1c(O)c(-c2ccc(O)c(O)c2)oc2cc(O)cc(O)c12", "note": "[QUERCETIN]", "IC50": 32.7}, {"compound": "O=c1c(O)c(-c2cc(O)c(O)c(O)c2)oc2cc(O)cc(O)c12", "note": "[MYRICETIN]", "IC50": 37.1}, {"compound": "COc1cc(O)c(C(=O)/C=C/c2ccc(O)cc2)c(OC)c1", "note": "[FLAVOKAWAIN C]", "IC50": 33.1}, {"compound": "O=C(CC(O)CCc1ccccc1)c1ccc(O)cc1", "note": "(stereo not drawn)", "IC50": 38.4}, {"compound": "CC[C@H](CC[C@@H](C)[C@H]1CC[C@H]2[C@@H]3CC=C4C[C@@H](O)CC[C@]4(C)[C@H]3CC[C@]12C)C(C)C", "note": "[BETA-SITOSTEROL]", "IC50": 28.8}, {"compound": "O=C(O)/C=C/c1ccc(O)cc1", "note": "[COUMARIC ACID]", "IC50": 83.2}, {"compound": "COc1cc2cc(Oc3ccc4ccc(=O)oc4c3)c(=O)oc2cc1O", "note": "[DAPHNORETIN]", "IC50": 87.1}]}]}
